Holding throughout (test): radiometric in vitro kinase assay, autoradiography
Holding throughout (type): biochemical

One assay has as its target T1, His-M3K∂6 (Arabidopsis thaliana, UniProt Q9C9U5).
T1 construct: gene SIS8; 6 x His tag, expressed in E. coli BL21 (DE3); plasmid from Takahashi et al. 2020
T1 sequence (Q9C9U5 1-1030): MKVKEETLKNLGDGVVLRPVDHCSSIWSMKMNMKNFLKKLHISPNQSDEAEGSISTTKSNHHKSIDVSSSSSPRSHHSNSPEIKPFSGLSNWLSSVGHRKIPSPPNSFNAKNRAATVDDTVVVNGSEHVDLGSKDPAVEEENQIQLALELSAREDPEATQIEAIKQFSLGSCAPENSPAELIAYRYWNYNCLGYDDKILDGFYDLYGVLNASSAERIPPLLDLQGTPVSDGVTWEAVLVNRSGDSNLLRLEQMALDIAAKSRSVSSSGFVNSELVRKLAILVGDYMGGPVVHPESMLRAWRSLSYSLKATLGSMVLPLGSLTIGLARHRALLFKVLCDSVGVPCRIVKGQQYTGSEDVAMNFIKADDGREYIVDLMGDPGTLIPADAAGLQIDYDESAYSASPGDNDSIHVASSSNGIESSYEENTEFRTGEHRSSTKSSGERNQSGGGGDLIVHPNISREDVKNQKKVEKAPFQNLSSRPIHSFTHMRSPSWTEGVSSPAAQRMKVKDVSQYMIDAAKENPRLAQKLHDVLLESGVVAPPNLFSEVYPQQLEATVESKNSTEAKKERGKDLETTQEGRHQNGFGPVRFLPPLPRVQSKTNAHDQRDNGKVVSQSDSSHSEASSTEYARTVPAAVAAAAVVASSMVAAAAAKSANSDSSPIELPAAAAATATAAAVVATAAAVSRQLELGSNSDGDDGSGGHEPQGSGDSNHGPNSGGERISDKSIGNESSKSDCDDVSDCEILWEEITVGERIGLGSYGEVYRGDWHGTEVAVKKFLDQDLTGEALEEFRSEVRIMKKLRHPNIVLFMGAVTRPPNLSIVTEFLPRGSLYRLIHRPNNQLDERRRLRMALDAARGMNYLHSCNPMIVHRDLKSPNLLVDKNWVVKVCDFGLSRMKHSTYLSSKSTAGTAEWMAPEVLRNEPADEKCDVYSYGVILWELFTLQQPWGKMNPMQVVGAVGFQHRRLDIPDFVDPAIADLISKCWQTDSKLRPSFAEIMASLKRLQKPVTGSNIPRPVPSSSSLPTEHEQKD
As to conditions: autophosphorylation and histone phosphorylation; 200 µM ATP plus [γ-32P]ATP, labelled compound; 10 mM MgCl2; pH 7.5; room temperature.

For the next assay, the target named is T2, His-Raf12 (Arabidopsis thaliana, UniProt F4JMR7).
T2 construct: gene At4g23050; 6 x His tag, pET30a(+), expressed in E. coli BL21 (DE3); insert from cDNA of ABA-treated Col-0 leaf epidermis
T2 sequence (F4JMR7 1-735): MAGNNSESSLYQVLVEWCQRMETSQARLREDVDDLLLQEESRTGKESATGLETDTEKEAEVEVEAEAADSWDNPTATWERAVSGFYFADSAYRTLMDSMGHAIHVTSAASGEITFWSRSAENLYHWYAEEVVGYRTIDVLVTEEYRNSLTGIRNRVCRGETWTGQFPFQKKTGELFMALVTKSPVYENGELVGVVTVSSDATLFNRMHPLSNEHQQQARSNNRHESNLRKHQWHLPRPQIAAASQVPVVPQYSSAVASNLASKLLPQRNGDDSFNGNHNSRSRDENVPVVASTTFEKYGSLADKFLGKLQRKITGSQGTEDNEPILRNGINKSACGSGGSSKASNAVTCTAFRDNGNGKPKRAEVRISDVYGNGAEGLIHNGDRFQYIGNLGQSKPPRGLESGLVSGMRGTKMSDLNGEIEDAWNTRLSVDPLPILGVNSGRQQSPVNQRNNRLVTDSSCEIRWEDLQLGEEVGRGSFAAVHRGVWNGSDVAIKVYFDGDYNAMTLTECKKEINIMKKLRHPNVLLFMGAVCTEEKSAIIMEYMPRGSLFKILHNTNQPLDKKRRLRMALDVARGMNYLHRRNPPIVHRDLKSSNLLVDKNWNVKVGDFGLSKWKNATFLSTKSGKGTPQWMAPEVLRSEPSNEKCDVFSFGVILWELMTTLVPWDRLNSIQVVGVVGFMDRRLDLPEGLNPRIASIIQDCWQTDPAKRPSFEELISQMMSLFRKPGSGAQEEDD
The conditions noted are these: autophosphorylation and histone phosphorylation; 200 µM ATP plus [γ-32P]ATP, labelled compound; 10 mM MgCl2; pH 7.5; room temperature.

The next assay addresses T3, His-OST1 (Arabidopsis thaliana, UniProt Q940H6).
T3 construct: gene SRK2E; 6 x His tag, expressed in E. coli BL21 (DE3); plasmid from Takahashi et al. 2020
T3 sequence (Q940H6 1-362): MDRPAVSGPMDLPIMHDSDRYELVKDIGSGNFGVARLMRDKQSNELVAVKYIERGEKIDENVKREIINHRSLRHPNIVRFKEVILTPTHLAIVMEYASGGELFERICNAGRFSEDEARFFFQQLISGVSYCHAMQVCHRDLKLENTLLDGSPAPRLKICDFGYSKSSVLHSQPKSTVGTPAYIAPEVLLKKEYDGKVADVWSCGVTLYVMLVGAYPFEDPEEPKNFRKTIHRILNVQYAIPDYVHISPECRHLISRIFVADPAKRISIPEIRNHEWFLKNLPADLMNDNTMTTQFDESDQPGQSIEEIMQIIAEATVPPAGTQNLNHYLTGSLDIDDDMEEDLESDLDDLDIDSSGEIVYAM
The conditions noted are these: 200 µM ATP plus [γ-32P]ATP, 10 mM MgCl2, pH 7.5, room temperature.

Here are results for two compounds from paper PMC12290280 (Plant and Cell Physiology, 2025).

Regarding `Nc1ncnc2c1ncn2[C@@H]1O[C@H](COP(=O)(O)OP(=O)(O)OP(=O)(O)O)[C@@H](O)[C@H]1O` [ATP], the “radiometric in vitro kinase assay, autoradiography” value at His-M3K∂6 is “we conducted protein phosphorylation assays using Raf-like kinases in both of these clades”; at His-Raf12 it was “the kinase activity of Raf12, a B2 clade Raf-like kinase, was not inhibited by PP242”; on His-OST1 (autophosphorylation and histone phosphorylation, labelled compound), “His-OST1 autophosphorylated and phosphorylated histone proteins as a substrate”.

With `COC(=O)[C@@]1(O)C[C@H]2O[C@]1(C)n1c3ccccc3c3c4c(c5c6ccccc6n2c5c31)C(=O)NC4` [K252a], the “radiometric in vitro kinase assay, autoradiography” value on His-OST1 (100 µM K252a, 20 min preincubation, histone substrate) was “Kinase activity of His-OST1 was partially decreased by K252a, a potent kinase inhibitor”.
